# From patent US20030166531A1, “Methods for modulating an immune response by modulating the interaction between CTLA4 and PP2A” (Genetics Institute, Inc., priority 2001, published 2003)
# How the values were obtained:
# [1] = accumulates in filter feeding organisms such as shellfish; cited from earlier work
# [2] = target: mutant K-less CTLA4 (K152A/K155A/K156A) expressed in doxycycline-induced Jurkat T cells (UniProt P16410); assay: cell-based or functional assay
# IL-2 gene transcription = assay: Luciferase reporter assay under IL-2 promoter/enhancer in CTLA4-transfected Jurkat T cells stimulated with SEE and APCs; assay type: cell-based; settings: doxycycline-induced Jurkat cells, TCR-CTLA4 co-ligation with SEE and APCs, at maximal RLU response
# Procedure: FIGS. 2A-2B depict the inhibition of IL-2 promoter/enhancer controlled luciferase reporter gene transcription by wild type (FIG. 2A) or K-less (FIG. 2B) CTLA4 molecules. Wild type or K-less CTLA4-transfected T cells were stimulated for 4 hours with antigen presenting cells and increasing concentrations of SEE antigen in the absence (upper data points) or presence (lower data points) of doxycycline (5 μg/ml). Cells were lysed and a luciferase assay was performed.
# The panel of Jurkat T cells transfected with a regulatable, doxycycline sensitive CTLA4 cDNA has been previously described (Carreno, B. M. et al. (2000) J. Immunol. 165:1352-1356; Baroja, M. L. et al. (2000) J. Immunol. 164:49-55). A luciferase reporter cDNA under the control of the interleukin-2 promoter and enhancer elements was transfected in these cells, and clones isolated after limiting dilution were used for these experiments. A 0.45 lymphoblastoid B cell line that expresses HLA-DR1 and B7.1 was also used. Both cell lines were cultured under standard conditions.
# Doxycycline treated Jurkat T cells (0.25×10^6 cells/group) were stimulated for 4 hours with 0.45 lymphoblastoid B cells (ratio 2:1) preincubated overnight with different concentrations of SEE. Luciferase assays were performed using the Promega Luciferase Assay System (Promega, Madison, Wis.). […]
# Sequence of UniProt P16410 (P16410 36-223, stated change not applied): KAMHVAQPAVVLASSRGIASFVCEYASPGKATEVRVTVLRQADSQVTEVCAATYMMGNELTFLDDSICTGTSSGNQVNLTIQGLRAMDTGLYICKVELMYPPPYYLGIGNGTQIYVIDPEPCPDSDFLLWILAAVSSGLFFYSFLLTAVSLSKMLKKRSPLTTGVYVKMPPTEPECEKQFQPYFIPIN
compound,measurement,setting,value
C=C1[C@@H](O)[C@@H]2O[C@]3(CC[C@H](/C=C/[C@@H](C)[C@@H]4CC(C)=C[C@@]5(O[C@H](C[C@@](C)(O)C(=O)O)CC[C@H]5O)O4)O3)CC[C@H]2O[C@@H]1[C@@H](O)C[C@H](C)[C@H]1O[C@@]2(CCCCO2)CC[C@H]1C [okadaic acid],toxicity when consumed by humans,[1],causes diarrhetic shellfish poisoning
endogenous PP2AA (65 kD regulatory subunit of PP2A) of Jurkat T cells (from UniProt P30153 2-589),inhibition of luciferase activity (IL-2 promoter/enhancer reporter) upon TCR-CTLA4 co-ligation,[2],70 to 80%
wild type CTLA4: wild type CTLA4 expressed from a doxycycline-regulatable cDNA in transfected Jurkat T cells,inhibition of luciferase activity (IL-2 promoter/enhancer reporter),IL-2 gene transcription,35-55%
